# Laboratory results: PubChem BioAssay (NCI)
# “And” between values parts separate entries of the source, which are not always exact repeats. Equal entries are not always repeated.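 Grown in 96-well plates, cells were treated for 48 hours with each compound at five concentrations. Insufficient inhibition: endpoint recorded as highest concentration tested. GI50 = concentration required for 50% inhibition of growth. TGI: concentration producing complete growth inhibition.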
# Tested on: IGROV1 ovarian
# Test: NCI anticancer screen, dose series, 48 h
row,SMILES,TGI [µM]
1,CC1=C(C(=O)Nc2ccccc2)C(c2ccc(N(C)C)cc2)C(C(=O)Nc2ccccc2)=C(C)N1,> 88.3

# Tested on: HT29 colon
# Test: NCI anticancer screen, dose series, 48 h
SMILES,GI50,TGI
Cc1nn(-c2ccc(Cl)cc2)c2ncnc(N/N=C/c3ccccc3O)c12,2.43 µM and 1.62 µM,> 100 µM
COc1ccc2c(c1)C(=O)c1c-2c(Nc2ccccc2OC)nc2ccccc12,> 100 µM,> 100 µM
COc1ccc2c(N)ncc(C#Cc3cc(C(=O)Nc4ccc(CN5CCN(C)CC5)c(C(F)(F)F)c4)cnc3C)c2c1,0.194 µM,0.876 µM
COc1cc2c(N3CCN(C(=O)Nc4ccc(OC(C)C)cc4)CC3)ncnc2cc1OCCCN1CCCCC1,6.59 µM,26.4 µM
Nc1ncc(Cc2ccc3c(c2)OCO3)c(N)n1,,> 100 µM
c1ccc(-c2[nH]ncc2-c2ccnc(-c3ccc(OCCn4ccnc4)cc3)c2)nc1,> 25 µM,> 25 µM
O=C1c2cccc(Oc3ccccc3)c2C(=O)c2cccc(Oc3ccccc3)c21,> 100 µM,> 100 µM
O=C(OCc1ccc2c(Br)cc(Br)c(O)c2n1)c1cc2ccccc2[nH]1,0.408 µM,1.59 µM
CC(C)(CO)CNC(=O)c1ccc2[nH]c(O)c(N=Nc3ccc(S(N)(=O)=O)cc3)c2c1,> 25 µM,> 25 µM
Cc1cc(O)c2c(c1)C(=O)C=CC2=O,,12.3 µM and 21.3 µM
CC1(C)N=C(N)N=C(N)N1c1ccc(CCC(=O)Nc2ccc(S(=O)(=O)F)cc2)cc1,0.362 µM,> 100 µM
N#CC1(c2ccc(NC(=O)c3cccnc3NCc3ccncc3)cc2)CCCC1,9.96 µM,> 56.2 µM
Cn1nccc1Nc1nccc(-c2ccn([C@H](CO)c3ccc(Cl)c(F)c3)c(=O)c2)n1,0.17 µM,> 100 µM
N#CC1c2ccccc2C=CN1C(=O)CCCl (stereo not drawn),11.1 µM,26.2 µM
O=C1NC(=N[C@@H](CO)c2ccccc2)S/C1=C\c1ccc2ncccc2c1,6.63 µM,> 25 µM
O=C1/C(=C/c2ccc(Cl)c(Cl)c2)CN(C(=O)CCN2CCC(=NO)CC2)C/C1=C\c1ccc(Cl)c(Cl)c1,0.328 µM,1.25 µM
CCN(CC)CCCNc1ccc(C)c2sc3ccccc3c(=O)c12,0.279 µM,1.09 µM
CCNc1nc(O)c(/C=C2\C=Nc3ncccc32)s1,4.44 µM,> 100 µM
O=C(/C=C/C12c3ccccc3C(c3ccccc31)C1C(=O)NC(=O)C12)c1ccccn1 (stereo not drawn),1.86 µM,4.56 µM
CC1=C(C(=O)Nc2ccccc2)C(c2ccc(N(C)C)cc2)C(C(=O)Nc2ccccc2)=C(C)N1,,> 75.8 µM

# Tested on: DU-145 prostate
# Test: NCI anticancer screen, dose series, 48 h
SMILES,GI50,TGI
Cc1nn(-c2ccc(Cl)cc2)c2ncnc(N/N=C/c3ccccc3O)c12,0.488 µM and 0.472 µM,16.4 µM and > 100 µM
COc1ccc2c(c1)C(=O)c1c-2c(Nc2ccccc2OC)nc2ccccc12,> 100 µM,> 100 µM
COc1ccc2c(N)ncc(C#Cc3cc(C(=O)Nc4ccc(CN5CCN(C)CC5)c(C(F)(F)F)c4)cnc3C)c2c1,0.419 µM,0.874 µM
COc1cc2c(N3CCN(C(=O)Nc4ccc(OC(C)C)cc4)CC3)ncnc2cc1OCCCN1CCCCC1,22 µM,> 85.3 µM
Nc1ncc(Cc2ccc3c(c2)OCO3)c(N)n1,,> 100 µM
c1ccc(-c2[nH]ncc2-c2ccnc(-c3ccc(OCCn4ccnc4)cc3)c2)nc1,> 25 µM,> 25 µM
O=C1c2cccc(Oc3ccccc3)c2C(=O)c2cccc(Oc3ccccc3)c21,> 100 µM,> 100 µM
O=C(OCc1ccc2c(Br)cc(Br)c(O)c2n1)c1cc2ccccc2[nH]1,0.91 µM,2.18 µM
CC(C)(CO)CNC(=O)c1ccc2[nH]c(O)c(N=Nc3ccc(S(N)(=O)=O)cc3)c2c1,> 25 µM,> 25 µM
Cc1cc(O)c2c(c1)C(=O)C=CC2=O,,30.8 µM and 46.7 µM
CC1(C)N=C(N)N=C(N)N1c1ccc(CCC(=O)Nc2ccc(S(=O)(=O)F)cc2)cc1,0.871 µM,> 100 µM
N#CC1(c2ccc(NC(=O)c3cccnc3NCc3ccncc3)cc2)CCCC1,18.8 µM,> 100 µM
Cn1nccc1Nc1nccc(-c2ccn([C@H](CO)c3ccc(Cl)c(F)c3)c(=O)c2)n1,27.7 µM,> 100 µM
N#CC1c2ccccc2C=CN1C(=O)CCCl (stereo not drawn),9.04 µM,21.9 µM
O=C1NC(=N[C@@H](CO)c2ccccc2)S/C1=C\c1ccc2ncccc2c1,13.8 µM,> 25 µM
O=C1/C(=C/c2ccc(Cl)c(Cl)c2)CN(C(=O)CCN2CCC(=NO)CC2)C/C1=C\c1ccc(Cl)c(Cl)c1,1.21 µM,2.73 µM
CCN(CC)CCCNc1ccc(C)c2sc3ccccc3c(=O)c12,1.04 µM,2.44 µM
CCNc1nc(O)c(/C=C2\C=Nc3ncccc32)s1,3.25 µM,47.4 µM
O=C(/C=C/C12c3ccccc3C(c3ccccc31)C1C(=O)NC(=O)C12)c1ccccn1 (stereo not drawn),1.02 µM,2.21 µM
CC1=C(C(=O)Nc2ccccc2)C(c2ccc(N(C)C)cc2)C(C(=O)Nc2ccccc2)=C(C)N1,,> 91.7 µM

# Tested on: A549 NSCLC
# Test: NCI anticancer screen, dose series, 48 h
SMILES,GI50,TGI
Cc1nn(-c2ccc(Cl)cc2)c2ncnc(N/N=C/c3ccccc3O)c12,1.77 µM and 0.699 µM,17.2 µM and 16 µM
COc1ccc2c(c1)C(=O)c1c-2c(Nc2ccccc2OC)nc2ccccc12,> 100 µM,> 100 µM
COc1ccc2c(N)ncc(C#Cc3cc(C(=O)Nc4ccc(CN5CCN(C)CC5)c(C(F)(F)F)c4)cnc3C)c2c1,0.576 µM,1.28 µM
COc1cc2c(N3CCN(C(=O)Nc4ccc(OC(C)C)cc4)CC3)ncnc2cc1OCCCN1CCCCC1,17.1 µM,> 93.7 µM
Nc1ncc(Cc2ccc3c(c2)OCO3)c(N)n1,,> 100 µM
c1ccc(-c2[nH]ncc2-c2ccnc(-c3ccc(OCCn4ccnc4)cc3)c2)nc1,> 25 µM,> 25 µM
O=C1c2cccc(Oc3ccccc3)c2C(=O)c2cccc(Oc3ccccc3)c21,> 100 µM,> 100 µM
O=C(OCc1ccc2c(Br)cc(Br)c(O)c2n1)c1cc2ccccc2[nH]1,1.42 µM,3.62 µM
CC(C)(CO)CNC(=O)c1ccc2[nH]c(O)c(N=Nc3ccc(S(N)(=O)=O)cc3)c2c1,> 25 µM,> 25 µM
Cc1cc(O)c2c(c1)C(=O)C=CC2=O,,58 µM and 42.9 µM
